Measurements taken from ChEMBL document CHEMBL4507286 (2021).

Tests used:
[1] = target: Serine/threonine-protein kinase 16 (Homo sapiens) (UniProt O75716)
[2] = target: Serine/threonine-protein kinase/endoribonuclease IRE1 (Homo sapiens) (UniProt O75460)
[3] = target: Cyclin-dependent kinase 18 (Homo sapiens) (UniProt Q07002)
[4] = target: Ephrin type-A receptor 2 (Homo sapiens) (UniProt P29317)
[5] = target: BMP-2-inducible protein kinase (Homo sapiens) (UniProt Q9NSY1)
[6] = target: Cyclin-dependent kinase 2 (Homo sapiens, UniProt P24941)
[7] = target: Bone morphogenetic protein receptor type-2 (Homo sapiens) (UniProt Q13873)
[8] = target: Ribosomal protein S6 kinase alpha-2 (Homo sapiens) (UniProt Q15349)
[9] = target: Ribosomal protein S6 kinase beta-1 (Homo sapiens) (UniProt P23443)
Ribosomal protein S6 kinase beta-1 (Homo sapiens), sequence (P23443 whole entry, looked up): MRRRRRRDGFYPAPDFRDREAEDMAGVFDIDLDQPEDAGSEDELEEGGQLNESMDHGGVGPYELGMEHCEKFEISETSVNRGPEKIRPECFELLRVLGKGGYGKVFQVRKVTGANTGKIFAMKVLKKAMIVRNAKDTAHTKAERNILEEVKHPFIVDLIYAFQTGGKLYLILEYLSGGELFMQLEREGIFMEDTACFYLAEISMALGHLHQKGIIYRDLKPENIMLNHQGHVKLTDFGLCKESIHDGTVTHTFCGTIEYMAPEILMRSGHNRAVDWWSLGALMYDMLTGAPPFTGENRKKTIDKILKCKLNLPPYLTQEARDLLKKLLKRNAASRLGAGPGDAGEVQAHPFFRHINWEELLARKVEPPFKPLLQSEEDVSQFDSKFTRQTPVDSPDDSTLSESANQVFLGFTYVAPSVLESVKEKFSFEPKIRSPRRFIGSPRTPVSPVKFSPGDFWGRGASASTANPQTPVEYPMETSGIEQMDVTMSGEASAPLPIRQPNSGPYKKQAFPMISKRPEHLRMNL

[10] = target: 5-hydroxytryptamine receptor 2B (Homo sapiens, UniProt P41595); settings: Compound concentration 10.0 uM
[11] = test system: Mast/stem cell growth factor receptor Kit (Homo sapiens), P10721 [L576P]
Mast/stem cell growth factor receptor Kit (Homo sapiens), P10721 [L576P], sequence (P10721 whole entry L576P): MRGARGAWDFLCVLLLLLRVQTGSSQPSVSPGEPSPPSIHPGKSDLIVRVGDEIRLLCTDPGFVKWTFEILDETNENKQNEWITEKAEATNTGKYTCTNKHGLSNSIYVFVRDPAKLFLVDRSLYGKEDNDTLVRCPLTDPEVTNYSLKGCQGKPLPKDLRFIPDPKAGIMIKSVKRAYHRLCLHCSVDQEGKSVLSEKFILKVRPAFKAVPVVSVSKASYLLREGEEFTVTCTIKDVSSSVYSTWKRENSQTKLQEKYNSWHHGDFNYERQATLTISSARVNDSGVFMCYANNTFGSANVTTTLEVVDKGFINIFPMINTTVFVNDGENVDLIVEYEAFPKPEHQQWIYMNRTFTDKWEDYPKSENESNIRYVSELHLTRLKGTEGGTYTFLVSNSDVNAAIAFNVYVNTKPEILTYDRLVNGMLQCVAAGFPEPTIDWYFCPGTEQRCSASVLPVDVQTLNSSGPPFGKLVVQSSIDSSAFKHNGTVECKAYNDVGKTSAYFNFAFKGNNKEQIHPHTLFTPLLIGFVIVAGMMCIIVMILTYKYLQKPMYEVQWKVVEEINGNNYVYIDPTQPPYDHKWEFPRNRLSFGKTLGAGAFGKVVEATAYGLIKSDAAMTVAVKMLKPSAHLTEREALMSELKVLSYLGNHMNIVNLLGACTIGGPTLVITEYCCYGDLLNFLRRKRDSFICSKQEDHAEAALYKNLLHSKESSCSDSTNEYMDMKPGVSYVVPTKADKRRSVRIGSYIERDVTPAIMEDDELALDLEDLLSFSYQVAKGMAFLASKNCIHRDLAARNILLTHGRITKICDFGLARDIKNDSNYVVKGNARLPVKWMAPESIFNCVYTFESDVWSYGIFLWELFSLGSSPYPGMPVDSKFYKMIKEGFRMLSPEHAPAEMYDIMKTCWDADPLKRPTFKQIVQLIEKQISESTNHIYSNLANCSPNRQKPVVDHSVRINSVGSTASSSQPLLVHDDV

[12] = target: Serine/threonine-protein kinase WNK4 (Homo sapiens) (UniProt Q96J92)
[13] = target: 5-hydroxytryptamine receptor 2A (Homo sapiens) (UniProt P28223); settings: Compound concentration 10.0 uM
[14] = target: Serine/threonine-protein kinase LATS2 (Homo sapiens) (UniProt Q9NRM7)
[15] = target: Calcium/calmodulin-dependent protein kinase type 1G (Homo sapiens) (UniProt Q96NX5)
[16] = target: Serine/threonine-protein kinase D3 (Homo sapiens) (UniProt O94806)
[17] = target: Serine/threonine-protein kinase ULK2 (Homo sapiens) (UniProt Q8IYT8)
[18] = target: Dual serine/threonine and tyrosine protein kinase (Homo sapiens) (UniProt Q6XUX3)
Dual serine/threonine and tyrosine protein kinase (Homo sapiens), sequence (Q6XUX3 whole entry): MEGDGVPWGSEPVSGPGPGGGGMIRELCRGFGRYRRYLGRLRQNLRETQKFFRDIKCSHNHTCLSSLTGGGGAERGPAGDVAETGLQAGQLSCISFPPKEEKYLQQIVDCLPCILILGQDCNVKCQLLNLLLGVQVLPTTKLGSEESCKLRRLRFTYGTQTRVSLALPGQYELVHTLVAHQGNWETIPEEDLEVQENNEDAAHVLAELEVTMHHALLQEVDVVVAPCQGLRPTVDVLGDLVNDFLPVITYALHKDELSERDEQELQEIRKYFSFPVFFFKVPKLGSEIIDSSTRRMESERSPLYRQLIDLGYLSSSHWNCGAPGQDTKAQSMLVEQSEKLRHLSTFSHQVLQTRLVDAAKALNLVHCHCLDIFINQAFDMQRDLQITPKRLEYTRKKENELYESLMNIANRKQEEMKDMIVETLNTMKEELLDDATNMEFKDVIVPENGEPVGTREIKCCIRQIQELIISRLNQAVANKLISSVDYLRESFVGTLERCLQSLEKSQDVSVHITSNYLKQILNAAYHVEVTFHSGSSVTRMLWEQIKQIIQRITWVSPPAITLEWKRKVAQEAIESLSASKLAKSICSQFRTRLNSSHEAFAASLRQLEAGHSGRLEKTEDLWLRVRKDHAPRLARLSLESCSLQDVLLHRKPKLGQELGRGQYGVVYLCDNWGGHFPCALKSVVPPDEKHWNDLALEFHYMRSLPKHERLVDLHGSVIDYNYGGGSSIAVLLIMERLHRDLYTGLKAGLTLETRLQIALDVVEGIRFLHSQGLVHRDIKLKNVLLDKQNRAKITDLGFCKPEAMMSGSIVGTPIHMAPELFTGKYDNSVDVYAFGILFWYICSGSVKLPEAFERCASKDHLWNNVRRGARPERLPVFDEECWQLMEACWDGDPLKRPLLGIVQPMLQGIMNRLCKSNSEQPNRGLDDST

[19] = target: Cyclin-dependent kinase 16 (Homo sapiens) (UniProt Q00536)
Cyclin-dependent kinase 16 (Homo sapiens), sequence (Q00536 whole entry, canonical isoform): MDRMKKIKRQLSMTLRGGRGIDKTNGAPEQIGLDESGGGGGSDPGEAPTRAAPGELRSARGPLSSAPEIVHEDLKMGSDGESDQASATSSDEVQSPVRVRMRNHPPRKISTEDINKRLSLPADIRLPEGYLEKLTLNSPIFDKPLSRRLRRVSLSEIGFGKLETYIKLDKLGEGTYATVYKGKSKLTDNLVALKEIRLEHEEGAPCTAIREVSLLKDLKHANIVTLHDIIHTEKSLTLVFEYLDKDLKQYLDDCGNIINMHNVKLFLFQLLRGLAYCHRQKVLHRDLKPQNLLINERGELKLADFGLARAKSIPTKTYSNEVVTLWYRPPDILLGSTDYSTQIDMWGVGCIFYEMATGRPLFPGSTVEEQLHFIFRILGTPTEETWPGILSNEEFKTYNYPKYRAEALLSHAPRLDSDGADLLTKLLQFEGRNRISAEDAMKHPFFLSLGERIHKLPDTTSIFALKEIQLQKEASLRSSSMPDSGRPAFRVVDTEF

[20] = target: Phosphatidylinositol 4,5-bisphosphate 3-kinase catalytic subunit alpha isoform (Homo sapiens) (UniProt P42336)
[21] = target: Beta-adrenergic receptor kinase 1 (Homo sapiens) (UniProt P25098)
[22] = test system: ALK tyrosine kinase receptor (Homo sapiens), Q9UM73 [C1156Y]
[23] = target: Histamine H1 receptor (Homo sapiens) (UniProt P35367); settings: Compound concentration 10.0 uM
[24] = target: Rho-associated protein kinase 1 (Homo sapiens) (UniProt Q13464)
[25] = target: Ribosomal protein S6 kinase alpha-1 (Homo sapiens) (UniProt Q15418)
[26] = target: Casein kinase I isoform epsilon (Homo sapiens) (UniProt P49674)
Casein kinase I isoform epsilon (Homo sapiens), sequence (P49674 whole entry, looked up, canonical isoform): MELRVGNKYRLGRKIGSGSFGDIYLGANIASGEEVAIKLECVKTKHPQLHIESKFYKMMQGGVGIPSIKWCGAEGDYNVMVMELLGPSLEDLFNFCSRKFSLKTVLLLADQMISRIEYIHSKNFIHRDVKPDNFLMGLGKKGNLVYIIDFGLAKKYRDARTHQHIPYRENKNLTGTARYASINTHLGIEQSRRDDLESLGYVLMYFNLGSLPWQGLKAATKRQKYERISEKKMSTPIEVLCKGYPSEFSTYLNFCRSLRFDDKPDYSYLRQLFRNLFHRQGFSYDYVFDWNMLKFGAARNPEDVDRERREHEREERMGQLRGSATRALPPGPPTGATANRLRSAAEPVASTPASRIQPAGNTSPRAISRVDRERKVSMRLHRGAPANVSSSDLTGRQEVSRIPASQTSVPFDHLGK

[27] = target: Peripheral plasma membrane protein CASK (Homo sapiens) (UniProt O14936)
[28] = target: Serine/threonine-protein kinase Nek10 (Homo sapiens) (UniProt Q6ZWH5)
[29] = target: Calcium/calmodulin-dependent protein kinase type 1 (Homo sapiens) (UniProt Q14012)
[30] = target: Cyclin-dependent kinase 19 (Homo sapiens) (UniProt Q9BWU1)
[31] = target: Mitogen-activated protein kinase 13 (Homo sapiens) (UniProt O15264)
[32] = target: Aurora kinase B (Homo sapiens) (UniProt Q96GD4)
Aurora kinase B (Homo sapiens), sequence (Q96GD4 whole entry): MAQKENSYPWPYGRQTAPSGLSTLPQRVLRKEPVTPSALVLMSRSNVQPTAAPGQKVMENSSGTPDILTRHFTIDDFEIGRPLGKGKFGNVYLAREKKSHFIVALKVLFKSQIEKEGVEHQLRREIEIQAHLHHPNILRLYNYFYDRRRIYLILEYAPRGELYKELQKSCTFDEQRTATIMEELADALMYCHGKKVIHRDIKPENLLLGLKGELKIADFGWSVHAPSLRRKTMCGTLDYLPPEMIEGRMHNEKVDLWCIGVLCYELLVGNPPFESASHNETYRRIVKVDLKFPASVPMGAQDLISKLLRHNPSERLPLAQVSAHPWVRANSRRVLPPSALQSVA

[33] = target: cAMP-dependent protein kinase catalytic subunit beta (Homo sapiens) (UniProt P22694)
[34] = target: Misshapen-like kinase 1 (Homo sapiens) (UniProt Q8N4C8)
[35] = target: High affinity nerve growth factor receptor (Homo sapiens) (UniProt P04629)
[36] = target: Tyrosine-protein kinase Lyn (Homo sapiens) (UniProt P07948)
[37] = target: SRSF protein kinase 2 (Homo sapiens) (UniProt P78362)
[38] = target: Serine/threonine-protein kinase TAO2 (Homo sapiens) (UniProt Q9UL54)
[39] = target: Cyclin-dependent kinase 4 (Homo sapiens) (UniProt P11802)
[40] = target: Dual specificity mitogen-activated protein kinase kinase 1 (Homo sapiens) (UniProt Q02750)
[41] = target: Dual specificity mitogen-activated protein kinase kinase 2 (Homo sapiens) (UniProt P36507)
Dual specificity mitogen-activated protein kinase kinase 2 (Homo sapiens), sequence (P36507 whole entry): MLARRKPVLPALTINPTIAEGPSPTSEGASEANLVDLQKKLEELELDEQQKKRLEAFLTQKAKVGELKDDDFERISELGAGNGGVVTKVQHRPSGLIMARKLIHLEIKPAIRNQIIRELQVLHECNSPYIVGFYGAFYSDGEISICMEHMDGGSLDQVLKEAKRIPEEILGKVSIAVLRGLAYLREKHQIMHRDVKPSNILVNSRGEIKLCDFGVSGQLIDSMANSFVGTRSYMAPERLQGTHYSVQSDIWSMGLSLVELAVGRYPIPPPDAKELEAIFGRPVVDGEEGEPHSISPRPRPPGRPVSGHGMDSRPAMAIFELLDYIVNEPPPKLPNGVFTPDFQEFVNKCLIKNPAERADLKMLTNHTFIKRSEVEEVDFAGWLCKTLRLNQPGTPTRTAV

[42] = target: Alpha-2B adrenergic receptor (Homo sapiens) (UniProt P18089); settings: Compound concentration 10.0 uM
[43] = target: Mu-type opioid receptor (Homo sapiens) (UniProt P35372); settings: Compound concentration 10.0 uM
[44] = target: Serine/threonine-protein kinase RIO3 (Homo sapiens) (UniProt O14730)
[45] = target: Casein kinase I isoform gamma-3 (Homo sapiens) (UniProt Q9Y6M4)
[46] = target: Serine/threonine-protein kinase TAO3 (Homo sapiens) (UniProt Q9H2K8)
Serine/threonine-protein kinase TAO3 (Homo sapiens), sequence (Q9H2K8 whole entry): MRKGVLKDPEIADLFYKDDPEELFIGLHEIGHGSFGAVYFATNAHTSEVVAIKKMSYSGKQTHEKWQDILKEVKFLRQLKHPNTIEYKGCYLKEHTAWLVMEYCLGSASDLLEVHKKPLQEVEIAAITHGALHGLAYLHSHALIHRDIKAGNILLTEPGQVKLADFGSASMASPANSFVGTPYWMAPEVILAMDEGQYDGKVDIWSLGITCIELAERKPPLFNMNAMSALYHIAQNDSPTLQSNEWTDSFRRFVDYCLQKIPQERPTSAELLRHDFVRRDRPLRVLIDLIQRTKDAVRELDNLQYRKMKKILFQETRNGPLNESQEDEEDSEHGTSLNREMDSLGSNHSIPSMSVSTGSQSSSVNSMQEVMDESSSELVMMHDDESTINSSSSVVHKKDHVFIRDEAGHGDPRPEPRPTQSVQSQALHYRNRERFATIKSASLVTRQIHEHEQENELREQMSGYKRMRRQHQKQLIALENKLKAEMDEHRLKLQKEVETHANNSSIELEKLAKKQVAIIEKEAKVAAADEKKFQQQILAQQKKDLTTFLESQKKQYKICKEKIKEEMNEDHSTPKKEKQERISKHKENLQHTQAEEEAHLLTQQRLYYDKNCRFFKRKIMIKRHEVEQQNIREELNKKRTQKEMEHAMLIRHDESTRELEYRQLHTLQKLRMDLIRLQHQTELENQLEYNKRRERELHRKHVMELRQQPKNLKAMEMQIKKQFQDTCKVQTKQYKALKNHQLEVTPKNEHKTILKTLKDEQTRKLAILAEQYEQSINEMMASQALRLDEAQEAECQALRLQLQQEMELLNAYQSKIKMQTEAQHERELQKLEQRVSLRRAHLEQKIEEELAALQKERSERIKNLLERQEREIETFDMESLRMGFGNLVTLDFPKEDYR

[47] = Compound concentration 1000.0 nM
[48] = Compound concentration 100.0 nM

C[C@H](NC(=O)Nc1cc2[nH]ncc2c(CO)n1)c1ccccn1 [ERKi-NC] was tested, and the residual activity [1, 47] was 100%, the residual activity [2, 47] was 100% and the residual activity [3, 47] was 100%. The residual activity [4, 47] was 100%, the residual activity [5, 47] was 100% and the residual activity [6, 47] was 100%. The residual activity [7, 47] was 100%, the residual activity [8, 47] was 95.3% and the residual activity [9, 47] was 58.3%. The inhibition [10] was 90.9%, the residual activity [11, 47] was 100% and the residual activity [12, 47] was 100%. The inhibition [13] was 7.64%, the residual activity [14, 47] was 100% and the residual activity [15, 47] was 100%. The residual activity [16, 47] was 100%, the residual activity [17, 47] was 100% and the residual activity [18, 47] was 100%. The residual activity [19, 47] was 100%, the residual activity [20, 47] was 100% and the residual activity [21, 47] was 79.3%. The residual activity [22, 47] was 100%, the inhibition [23] was 4.18% and the residual activity [24, 47] was 66%. For the same molecule, the residual activity [25, 47] was 90.3%, the residual activity [26, 47] was 96.1% and the residual activity [27, 47] was 60.8%. The residual activity [28, 47] was 53.8%, the residual activity [29, 47] was 100% and the residual activity [30, 47] was 71.3%. It also gave a residual activity [31, 47] of 85%, a residual activity [32, 47] of 79.8% and a residual activity [33, 47] of 91.5%. It also gave a residual activity [34, 47] of 77.7%, a residual activity [35, 47] of 81% and a residual activity [36, 47] of 100%. For the same molecule, the residual activity [37, 47] was 100%, the residual activity [38, 47] was 82.3% and the residual activity [39, 47] was 74.2%. It also gave a residual activity [40, 47] of 97.6%, a residual activity [41, 47] of 90.7% and an inhibition [42] of -0.465%. The inhibition [43] was -6.59%, the residual activity [44, 47] was 90.7% and the residual activity [45, 47] was 100%. It also gave a residual activity [46, 47] of 100%.

C[C@@H](NC(=O)Nc1cc2[nH]ncc2c(CO)n1)c1ccccc1 [ERKi] showed a residual activity [1, 48] of 60.3%, a residual activity [2, 48] of 61.6% and a residual activity [3, 48] of 100%. The residual activity [4, 48] was 100%, the residual activity [5, 48] was 91.9% and the residual activity [6, 48] was 75.7%. For the same molecule, the residual activity [7, 48] was 70.3%, the residual activity [8, 48] was 94.1% and the residual activity [9, 48] was 90%. It also gave an inhibition [10] of 13.1%, a residual activity [11, 48] of 72.1% and a residual activity [12, 48] of 100%. The inhibition [13] was 7.44%, the residual activity [14, 48] was 29% and the residual activity [15, 48] was 70.6%. For the same molecule, the residual activity [16, 48] was 100%, the residual activity [17, 48] was 79.7% and the residual activity [18, 48] was 91.6%. For the same molecule, the residual activity [19, 48] was 82.2%, the residual activity [20, 48] was 86% and the residual activity [21, 48] was 79.5%. It also gave a residual activity [22, 48] of 100%, an inhibition [23] of -7.28% and a residual activity [24, 48] of 64.7%. The residual activity [25, 48] was 89.9%, the residual activity [26, 48] was 95.1% and the residual activity [27, 48] was 89.7%. For the same molecule, the residual activity [28, 48] was 100%, the residual activity [29, 48] was 67.1% and the residual activity [30, 48] was 97.2%. The residual activity [31, 48] was 100%, the residual activity [32, 48] was 100% and the residual activity [33, 48] was 77%. For the same molecule, the residual activity [34, 48] was 90.1%, the residual activity [35, 48] was 90% and the residual activity [36, 48] was 84.5%. It also gave a residual activity [37, 48] of 61.2%, a residual activity [38, 48] of 74.7% and a residual activity [39, 48] of 86.6%. It also gave a residual activity [40, 48] of 79.8%, a residual activity [41, 48] of 84.8% and an inhibition [42] of -1.5%. The inhibition [43] was 6.82%, the residual activity [44, 48] was 100% and the residual activity [45, 48] was 87.9%. It also gave a residual activity [46, 48] of 73%.
